Measurements published in patent publication US20230093861A1, “RAPAMYCIN ANALOGS AS MTOR INHIBITORS” (Revolution Medicines, Inc., priority 2017, published 2023).
Where two headings read alike, the source gives them in different places.

Experiments:
[1] = system: P-P70S6K (T389); test: Cell based AlphaLISA assay, inhibition of P-P70S6K (T389) (mTORC1 substrate phosphorylation) in MDA-MB-468 cells; settings: Homo sapiens, 4 h, AlphaLISA, two to four hours at 37° C., read-out: pIC50 for Inhibition of mTORC1 and mTORC2 Substrate Phosphorylation, P-P70S6K-(T389) (converted)
Description: (§1) Cell Based AlphaLISA Assays for Determining IC50 for Inhibition of P-Akt (S473), P-4E-BP1 (T37/46), and P-P70S6K (T389) in MDA-MB-468 Cells
(§2) mTOR Kinase Cellular Assay
(§3) To measure functional activity of mTORC1 and mTORC2 in cells the phosphorylation of 4EBP1 (Thr37/46) and P70S6K (Thr389), and AKT1/2/3 (Ser473) was monitored using AlphaLisa SureFire Ultra Kits (Perkin Elmer). […] Incubations were terminated by removal of the assay buffer and addition of lysis buffer provided with the assay kit. Samples were processed according to the manufacturer's instructions. The Alpha signal from the respective phosphoproteins was measured in duplicate using a microplate reader (Envision, Perkin-Elmer or Spectramax M5, Molecular Devices). Inhibitor concentration response curves were analyzed using normalized IC50 regression curve fitting with control based normalization.

[2] = system: P-4E-BP1 (T37/46); test: Cell based AlphaLISA assay, inhibition of P-4E-BP1 (T37/46) (mTORC1 substrate phosphorylation) in MDA-MB-468 cells; settings: Homo sapiens, AlphaLISA, two to four hours at 37° C., read-out: pIC50 for Inhibition of mTORC1 and mTORC2 Substrate Phosphorylation, P-4E-BP1-(T37/46) (converted)
Description: as §1, §2, §3

[3] = system: P-Akt (S473); test: Cell based AlphaLISA assay, inhibition of P-Akt (S473) (mTORC2 substrate phosphorylation) in MDA-MB-468 cells; settings: Homo sapiens, AlphaLISA, two to four hours at 37° C., read-out: pIC50 for Inhibition of mTORC1 and mTORC2 Substrate Phosphorylation, p-AKT 1/2/3 -(S473) (converted)
Description: as §1, §2, §3

| Compound | IC50 [1] | IC50 ([2]; MDA-MB-468, 4 h) | IC50 ([3]; MDA-MB-468, 4 h) | IC50 ([2]; 4 h) | IC50 ([3]; 4 h) |
| --- | --- | --- | --- | --- | --- |
| CO[C@H]1C[C@@H]2CC[C@@H](C)[C@@](O)(O2)C(=O)C(=O)N2CCCC[C@H]2C(=O)O[C@H]([C@H](C)C[C@@H]2CC[C@H](n3nncc3-c3cccc(-c4cnc(N5CCN(Cc6cn(CCOCCOCCOCCOCCC(=O)NCCCCn7nc(-c8ccc9oc(N)nc9c8)c8c(N)ncnc87)nn6)CC5)nc4)c3)[C@H](OC)C2)CC(=O)[C@H](C)/C=C(\C)[C@@H](O)[C@@H](OC)C(=O)[C@H](C)C[C@H](C)/C=C/C=C/C=C/1C [Example 30] | < 1 nM | < 3.16 nM | 3.16 to 31.6 nM |  |  |
| CO[C@H]1C[C@@H]2CC[C@@H](C)[C@@](O)(O2)C(=O)C(=O)N2CCCC[C@H]2C(=O)O[C@H]([C@H](C)C[C@@H]2CC[C@H](n3nncc3-c3cccc(-c4cnc(N5CCN(S(=O)(=O)CCc6cn(CCOCCOCCC(=O)NCCCCn7nc(-c8ccc9oc(N)nc9c8)c8c(N)ncnc87)nn6)CC5)nc4)c3)[C@H](OC)C2)CC(=O)[C@H](C)/C=C(\C)[C@@H](O)[C@@H](OC)C(=O)[C@H](C)C[C@H](C)/C=C/C=C/C=C/1C [Example 36] | < 1 nM | 3.16 to 31.6 nM | 3.16 to 31.6 nM |  |  |
| CO[C@H]1C[C@@H]2CC[C@@H](C)[C@@](O)(O2)C(=O)C(=O)N2CCCC[C@H]2C(=O)O[C@H]([C@H](C)C[C@@H]2CC[C@@H](OCc3cccc(-c4cnc(N5CCN(S(=O)(=O)CCc6cn(CCOCCOCCOCCOCCC(=O)NCCCCn7nc(-c8ccc9oc(N)nc9c8)c8c(N)ncnc87)nn6)CC5)nc4)c3)[C@H](OC)C2)CC(=O)[C@H](C)/C=C(\C)[C@@H](O)[C@@H](OC)C(=O)[C@H](C)C[C@H](C)/C=C/C=C/C=C/1C [Example 26] | < 1 nM | < 3.16 nM | 3.16 to 31.6 nM |  |  |
| CO[C@H]1C[C@@H]2CC[C@@H](C)[C@@](O)(O2)C(=O)C(=O)N2CCCC[C@H]2C(=O)O[C@H]([C@H](C)C[C@@H]2CC[C@@H](OCc3cccc(-c4cnc(N5CCN(Cc6cn(CCOCCOCCOCCOCCOCCC(=O)NCCCCn7nc(-c8ccc9oc(N)nc9c8)c8c(N)ncnc87)nn6)CC5)nc4)c3)[C@H](OC)C2)CC(=O)[C@H](C)/C=C(\C)[C@@H](O)[C@@H](OC)C(=O)[C@H](C)C[C@H](C)/C=C/C=C/C=C/1C [Example 20] | < 1 nM | < 3.16 nM | 3.16 to 31.6 nM |  |  |
| CO[C@H]1C[C@@H]2CC[C@@H](C)[C@@](O)(O2)C(=O)C(=O)N2CCCC[C@H]2C(=O)O[C@H]([C@H](C)C[C@@H]2CC[C@H](n3cc(CCCC(=O)NCCOCCOCCOCCC(=O)NCCOCCOCCC(=O)NCCCCn4nc(-c5ccc6oc(N)nc6c5)c5c(N)ncnc54)nn3)[C@H](OC)C2)C/C(=N/OCc2ccccc2)[C@H](C)/C=C(\C)[C@@H](O)[C@@H](OC)C(=O)[C@H](C)C[C@H](C)/C=C/C=C/C=C/1C [Example 173] | 10 to 1000 nM | > 1000 nM | > 1000 nM |  |  |
| CO[C@H]1C[C@@H]2CC[C@@H](C)[C@@](O)(O2)C(=O)C(=O)N2CCCC[C@H]2C(=O)O[C@H]([C@H](C)C[C@@H]2CC[C@@H](O)[C@H](OC)C2)C[C@@H](OC)[C@H](C)/C=C(\C)[C@@H](O)[C@@H](OC)C(=NOCc2cn(CCOCCOCCOCCOCCOCCOCCOCCOCCC(=O)NCCCCn3nc(-c4ccc5oc(N)nc5c4)c4c(N)ncnc43)nn2)[C@H](C)C[C@H](C)/C=C/C=C/C=C/1C [Example 17] | 1 to 10 nM | 3.16 to 31.6 nM | 31.6 to 1000 nM |  |  |
| CO[C@H]1C[C@@H]2CC[C@@H](C)[C@@](O)(O2)C(=O)C(=O)N2CCCC[C@H]2C(=O)O[C@H]([C@H](C)C[C@@H]2CC[C@@H](OCCCCc3cn(CCOCCOCCOCCOCCOCCOCCOCCOCCC(=O)N4CCC(Cn5nc(-c6ccc7oc(N)nc7c6)c6c(N)ncnc65)CC4)nn3)[C@H](OC)C2)CC(=O)[C@H](C)/C=C(\C)[C@@H](O)[C@@H](OC)C(=O)[C@H](C)C[C@H](C)/C=C/C=C/C=C/1C [Example 90] | < 1 nM |  |  | < 3.16 nM | < 3.16 nM |
| CO[C@H]1C[C@@H]2CC[C@@H](C)[C@@](O)(O2)C(=O)C(=O)N2CCCC[C@H]2C(=O)O[C@H]([C@H](C)C[C@@H]2CC[C@H](n3cc(-c4cnc(N5CCN(c6ncc(C(=O)NCCOCCC(=O)NCCCCn7nc(-c8ccc9oc(N)nc9c8)c8c(N)ncnc87)cn6)CC5)nc4)nn3)[C@H](OC)C2)CC(=O)[C@H](C)/C=C(\C)[C@@H](O)[C@@H](OC)C(=O)[C@H](C)C[C@H](C)/C=C/C=C/C=C/1C [Example 109] | < 1 nM | > 1000 nM | > 1000 nM |  |  |
| CCO[C@@H]1C[C@@H]([C@H](C)C[C@@H]2CC[C@H](n3cc(CCCC(=O)NCCOCCOCCOCCC(=O)NCCOCCOCCC(=O)NCCCCn4nc(-c5cc6cc(O)ccc6[nH]5)c5c(N)ncnc54)nn3)[C@H](OC)C2)OC(=O)[C@@H]2CCCCN2C(=O)C(=O)[C@]2(O)O[C@@H](CC[C@H]2C)C[C@H](OC)/C(C)=C/C=C/C=C/[C@@H](C)C[C@@H](C)C(=O)[C@H](OC)[C@H](O)/C(C)=C/[C@H]1C [Example 166] | > 1000 nM | > 1000 nM | > 1000 nM |  |  |
| CO[C@H]1C[C@@H]2CC[C@@H](C)[C@@](O)(O2)C(=O)C(=O)N2CCCC[C@H]2C(=O)O[C@H]([C@H](C)C[C@@H]2CC[C@H](n3cc(-c4cccc(C(=O)NCCOCCOCCOCCOCCC(=O)NCCOCCOCCOCCOCCC(=O)NCCCCn5nc(-c6cc7cc(O)ccc7[nH]6)c6c(N)ncnc65)c4)nn3)[C@H](OC)C2)CC(=O)[C@H](C)/C=C(\C)[C@@H](O)[C@@H](OC)C(=O)[C@H](C)C[C@H](C)/C=C/C=C/C=C/1C [Example 142] | 1 to 10 nM | 3.16 to 31.6 nM | 31.6 to 1000 nM |  |  |
| CO[C@H]1C[C@@H]2CC[C@@H](C)[C@@](O)(O2)C(=O)C(=O)N2CCCC[C@H]2C(=O)O[C@H]([C@H](C)C[C@@H]2CC[C@@H](OCc3cccc(-c4cnc(N5CCN(Cc6cn(CCOCCOCCOCCC(=O)NCCCCn7nc(-c8ccc9oc(N)nc9c8)c8c(N)ncnc87)nn6)C(CO)C5)nc4)c3)[C@H](OC)C2)CC(=O)[C@H](C)/C=C(\C)[C@@H](O)[C@@H](OC)C(=O)[C@H](C)C[C@H](C)/C=C/C=C/C=C/1C (stereo partly drawn) [Example 25] | < 1 nM | < 3.16 nM | 3.16 to 31.6 nM |  |  |
| COc1cccc2cc(-c3nc([C@H]4CC[C@H](C(=O)NCCOCCOCCOCCNC(=O)CCOCCOCCOCCOCCn5cc(CCCCO[C@@H]6CC[C@@H](C[C@@H](C)[C@@H]7CC(=O)[C@H](C)/C=C(\C)[C@@H](O)[C@@H](OC)C(=O)[C@H](C)C[C@H](C)/C=C/C=C/C=C(\C)[C@@H](OC)C[C@@H]8CC[C@@H](C)[C@@](O)(O8)C(=O)C(=O)N8CCCC[C@H]8C(=O)O7)C[C@H]6OC)nn5)CC4)n4ncnc(N)c34)[nH]c12 [Example 189] | < 1 nM | < 3.16 nM | 3.16 to 31.6 nM |  |  |
| CO[C@H]1C[C@@H]2CC[C@@H](C)[C@@](O)(O2)C(=O)C(=O)N2CCCC[C@H]2C(=O)O[C@H]([C@H](C)C[C@@H]2CC[C@H](n3cc(COC(=O)NCCOCCOCCOCCOCCC(=O)NCCOCCOCCOCCOCCC(=O)NCCCCn4nc(-c5cc6cc(O)ccc6[nH]5)c5c(N)ncnc54)nn3)[C@H](OC)C2)CC(=O)[C@H](C)/C=C(\C)[C@@H](O)[C@@H](OC)C(=O)[C@H](C)C[C@H](C)/C=C/C=C/C=C/1C [Example 127] | 1 to 10 nM | 3.16 to 31.6 nM | 31.6 to 1000 nM |  |  |
